Data taken from patent publication US20240390338A1, “METHODS FOR TREATING NEUROGENERATIVE DISEASES” (PTC THERAPEUTICS, INC., priority 2021, published 2024).

Each compound was assayed on MAPT 3R mRNA (assay: RT-qPCR Assay to Quantify MAPT 3R mRNA in Cells). Settings: cells incubated with compound 24 h; 7-point concentration curve; MAPT minigene 3R RT-qPCR with GAPDH assay; EC2X interpolated from dose response curve.
Assay type: cell-based
Set-up: key to EC2X: An EC2X value ≥3000 nM is indicated by “inactive.”; An EC2X value between >1500 nM and ≤3000 nM is indicated by one star (*); An EC2X value between >1000 nM and ≤1500 nM is indicated by two stars (**); An EC2X value between >500 nM and ≤1000 nM is indicated by three stars (***); An EC2X value between >50 nM and ≤500 nM is indicated by four stars (****); An EC2X value ≤50 nM is indicated by five stars (*****)
Procedure: RT-qPCR Assay to Quantify MAPT 3R mRNA in Cells
Test compounds were serially diluted 3.16-fold in 100% DMSO to generate a 7-point concentration curve. Aliquots of 0.5 μL of diluted compounds were transferred to a 96-well flat bottom plate by a liquid handler. An aliquot of 0.5 μL DMSO was also transferred to separate wells and used as controls. Duplicate samples were set up for each compound concentration and for the DMSO control.
Cells were thawed and incubated in cell culture media (DMEM, 10% FBS, and 1% antibiotic cocktail) for 72 h. Cells were trypsinized, counted, and re-suspended to a concentration of 200,000 cells/mL in cell culture media. A 100 μL aliquot of the cell suspensions were plated at 20,000 cells per well in the compound containing 96 well microtiter plate and incubated for in a cell culture incubator (37° C., 5% CO2, 100% relative humidity).
After 24 h, media was aspirated from the cells and 20 μL of the RCL2 lysis buffer (10 mM Tris-HCL pH 7.4, 150 mM NaCl, 0.33% IGEPAL® CA-630) was added to each well and incubated at RT for 1 min. Chilled nuclease free water (140 μL per well) was added and the plates were immediately transferred on ice. After 1 min on ice, plates were frozen at −80° C. overnight.
Preparation of RT-qPCR Reaction Mixture:
An aliquot of 4 μL/well of the cell lysates was transferred using the liquid handler to the Armadillo 384-Well PCR plate containing 6 μL/well of the RT-qPCR reaction mixture that was prepared as detailed above. The plates were then sealed with MicroAmp™ Optical Adhesive Film followed by spinning down for 1 min and placed in the CFX384 thermocycler (BioRad).
The RT-qPCR was carried out at the following temperatures for the indicated time: • Step 1: 48° C. (30 min) • Step 2: 95° C. (10 min) • Step 3: 95° C. (15 sec) • Step 4: 60° C. (1 min); then, repeated Steps 3 and 4 for a total of 40 cycles.
The percent exon 4 skipping was calculated for each dose of compound treatment using Equations 1 and 2.
Data were fit to a dose response curve and the EC2X was interpolated using XLfit® statistical and curve fitting package.
An EC2X value between >1000 nM and ≤1500 nM is indicated by two stars (**). An EC2X value between >500 nM and ≤1000 nM is indicated by three stars (***). An EC2X value between >50 nM and ≤500 nM is indicated by four stars (****). An EC2X value ≤50 nM is indicated by five stars (*****).

Structure (SMILES) | EC (2-fold increase) [µM] | EC2X
N[C@H](Cc1sc2c(NCc3ccco3)cc(Cl)nc2c1Cl)C(=O)Nc1ccccc1 [Cpd 122, 3-(3,5-dichloro-7-{[(furan-2-yl)methyl]amino}thieno[3,2-b]pyridin-2-yl)-N-phenyl-D-alaninamide] | 0.05 to 0.5 | 
C#C[C@H](N)Cc1sc2c(NCc3ccco3)cc(Cl)nc2c1C [Cpd 123, 2-[(2R)-2-aminobut-3-yn-1-yl]-3-methyl-5-chloro-N-[(furan-2-yl)methyl]thieno[3,2-b]pyridin-7-amine] | ≤ 0.05 | 
C[C@H](F)[C@H](N)Cc1sc2c(NCc3nccs3)cc(Cl)nc2c1Br [Cpd 125, 2-[(2R,3S)-2-amino-3-fluorobutyl]-3-bromo-5-chloro-N-[(1,3-thiazol-2-yl)methyl]thieno[3,2-b]pyridin-7-amine] | ≤ 0.05 | 
Cc1c(C[C@@H](N)[C@H](C)F)sc2c(NCc3cccs3)cc(Cl)nc12 [Cpd 126, 2-[(2R,3S)-2-amino-3-fluorobutyl]-5-chloro-3-methyl-N-[(thiophen-2-yl)methyl]thieno[3,2-b]pyridin-7-amine] | ≤ 0.05 | 
Cc1c(C[C@@H](N)[C@H](C)F)sc2c(NCc3nccs3)cc(Cl)nc12 [Cpd 128, 2-[(2R,3S)-2-amino-3-fluorobutyl]-5-chloro-3-methyl-N-[(1,3-thiazol-2-yl)methyl]thieno[3,2-b]pyridin-7-amine] | ≤ 0.05 | 
C[C@H](N)C(F)(F)c1sc2c(NCc3cccs3)cc(Cl)nc2c1Cl [Cpd 132, 2-[(2S)-2-amino-1,1-difluoropropyl]-3,5-dichloro-N-[(thiophen-2-yl)methyl]thieno[3,2-b]pyridin-7-amine] | 0.05 to 0.5 | 
Cc1c(C[C@@H](N)C(=O)Nc2cnccn2)sc2c(NCc3ccco3)cc(Cl)nc12 [Cpd 135, 3-(5-chloro-7-{[(furan-2-yl)methyl]amino}-3-methylthieno[3,2-b]pyridin-2-yl)-N-pyrazin-2-yl-D-alaninamide] | 0.05 to 0.5 | 
Cc1c(C[C@@H](N)C(=O)Nc2ccncc2)sc2c(NCc3ccco3)cc(Cl)nc12 [Cpd 140, 3-(5-chloro-7-{[(furan-2-yl)methyl]amino}-3-methylthieno[3,2-b]pyridin-2-yl)-N-pyridin-4-yl-D-alaninamide] | 0.05 to 0.5 | 
Cc1c([C@@H](C)[C@H](C)N)sc2c(NCc3ccco3)cc(Cl)nc12 [Cpd 151, 2-[(2S,3S)-3-aminobutan-2-yl]-5-chloro-N-[(furan-2-yl)methyl]-3-methylthieno[3,2-b]pyridin-7-amine] |  | inactive
C[C@H](N)C(F)c1sc2c(NCc3ccco3)cc(Cl)nc2c1Br (stereo partly drawn) [Cpd 154, 2-[(2S)-2-amino-1-fluoropropyl]-3-bromo-5-chloro-N-[(furan-2-yl)methyl]thieno[3,2-b]pyridin-7-amine] | ≤ 0.05 | 
C[C@H](N)C(F)c1sc2c(NCc3cccs3)cc(Cl)nc2c1Br (stereo partly drawn) [Cpd 158, 2-[(2S)-2-amino-1-fluoropropyl]-3-bromo-5-chloro-N-[(thiophen-2-yl)methyl]thieno[3,2-b]pyridin-7-amine] | ≤ 0.05 | 
C[C@@H](O)[C@H](N)Cc1sc2c(NCc3ccco3)cc(Cl)nc2c1Br [Cpd 165, (2R,3R)-3-amino-4-(3-bromo-5-chloro-7-{[(furan-2-yl)methyl]amino}thieno[3,2-b]pyridin-2-yl)butan-2-ol] | ≤ 0.05 | 
C#C[C@H](N)Cc1sc2c(NCc3ccco3)cc(Cl)nc2c1Cl [Cpd 166, 2-[(2R)-2-aminobut-3-yn-1-yl]-3,5-dichloro-N-[(furan-2-yl)methyl]thieno[3,2-b]pyridin-7-amine] | 0.05 to 0.5 | 
